# Measurements taken from patent US20110003888A1, “HOPS EXTRACTION METHODS AND MIXTURES” (Bioactives, Inc., priority 2007, published 2011).
# What was measured:
# [1] = molecular target: T1, Cyp1 A1 (Homo sapiens, UniProt P04798); settings: cDNA-expressed human Cyp1 A1; cited from earlier work
# T1 sequence (P04798 1-512): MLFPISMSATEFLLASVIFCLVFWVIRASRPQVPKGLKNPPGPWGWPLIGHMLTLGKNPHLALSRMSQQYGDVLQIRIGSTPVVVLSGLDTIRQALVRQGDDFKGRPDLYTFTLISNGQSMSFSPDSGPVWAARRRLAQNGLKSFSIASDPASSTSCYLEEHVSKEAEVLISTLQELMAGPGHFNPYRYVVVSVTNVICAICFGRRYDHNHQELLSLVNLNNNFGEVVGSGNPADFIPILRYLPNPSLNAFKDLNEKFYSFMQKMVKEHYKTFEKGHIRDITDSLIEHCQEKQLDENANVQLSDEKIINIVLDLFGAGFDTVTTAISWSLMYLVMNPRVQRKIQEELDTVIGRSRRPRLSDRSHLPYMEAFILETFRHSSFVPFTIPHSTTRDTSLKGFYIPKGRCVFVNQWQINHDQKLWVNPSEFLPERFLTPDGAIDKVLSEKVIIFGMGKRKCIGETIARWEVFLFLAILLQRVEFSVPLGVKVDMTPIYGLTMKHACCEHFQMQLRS
# [2] = molecular target: T2, Cyp1B1 (Homo sapiens, UniProt Q16678); settings: cDNA-expressed human Cyp1B1; cited from earlier work
# T2 sequence (Q16678 1-543): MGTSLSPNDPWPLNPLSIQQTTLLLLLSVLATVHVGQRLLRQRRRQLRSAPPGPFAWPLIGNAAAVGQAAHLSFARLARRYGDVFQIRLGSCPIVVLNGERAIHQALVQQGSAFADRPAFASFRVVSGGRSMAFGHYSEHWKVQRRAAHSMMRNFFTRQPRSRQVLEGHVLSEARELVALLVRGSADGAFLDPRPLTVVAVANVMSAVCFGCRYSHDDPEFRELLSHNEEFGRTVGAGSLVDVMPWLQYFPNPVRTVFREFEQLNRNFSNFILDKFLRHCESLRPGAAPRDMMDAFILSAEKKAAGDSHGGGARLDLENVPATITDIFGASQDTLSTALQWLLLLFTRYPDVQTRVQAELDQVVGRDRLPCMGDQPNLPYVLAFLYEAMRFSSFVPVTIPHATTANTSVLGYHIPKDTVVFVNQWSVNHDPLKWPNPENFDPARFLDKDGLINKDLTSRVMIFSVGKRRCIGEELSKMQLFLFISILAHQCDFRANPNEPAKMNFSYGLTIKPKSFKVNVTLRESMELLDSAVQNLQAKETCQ
# [3] = molecular target: T3, Cyp1 A2 (Homo sapiens, UniProt P05177); settings: cDNA-expressed human Cyp1 A2; cited from earlier work
# T3 sequence (P05177 1-516): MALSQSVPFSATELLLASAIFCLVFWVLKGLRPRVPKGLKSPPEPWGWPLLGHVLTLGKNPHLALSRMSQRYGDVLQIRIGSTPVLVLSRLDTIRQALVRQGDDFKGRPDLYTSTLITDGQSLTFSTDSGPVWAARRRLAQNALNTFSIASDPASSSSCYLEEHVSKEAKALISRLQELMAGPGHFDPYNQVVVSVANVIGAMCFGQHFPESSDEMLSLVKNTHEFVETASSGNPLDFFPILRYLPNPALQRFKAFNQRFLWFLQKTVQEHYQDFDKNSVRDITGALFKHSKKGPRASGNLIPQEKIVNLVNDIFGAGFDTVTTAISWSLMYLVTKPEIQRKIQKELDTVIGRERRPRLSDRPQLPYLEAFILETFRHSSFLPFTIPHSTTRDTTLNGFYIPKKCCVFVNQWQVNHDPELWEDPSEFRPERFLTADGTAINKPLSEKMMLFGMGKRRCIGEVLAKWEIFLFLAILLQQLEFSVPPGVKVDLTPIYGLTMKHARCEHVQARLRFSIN
# [4] = in vitro; settings: human, Caco-2
# Protocol: (§1) To test the permeability of xanthohumol across Caco-2 cell monolayers, Caco-2 cell monolayers were grown to confluence on collagen-coated, microporous, polycarbonate membranes in 12-well Costar Transwell® plates. Details of the plates and their certification are shown below in Table 3. The test article was also the aqueous xanthohumol formulation, and the dosing concentration was 2 μM in the assay buffer (HBSSg) as in the previous example. Cell monolayers were dosed on the apical side (A-to-B) or basolateral side (B-to-A) and incubated at 37° C. with 5% CO2 in a humidified incubator. Samples were taken from the donor chamber at 120 minutes, and samples from the receiver chamber were collected at 60 and 120 minutes. Each determination was performed in duplicate. Lucifer yellow permeability was also measured for each monolayer after being subjected to the test article to ensure no damage was inflicted to the cell monolayers during the permeability experiment. All samples were assayed for Xanthohumol by LC/MS/MS using electrospray ionization. The apparent permeability (Papp), and percent recovery were calculated as described above.
# [5] = system: Caco-2 cell monolayers; assay: Permeability across Caco-2 cell monolayers; assay type: in vitro ADME
# Protocol: (§2) Percent Recovery=100×((Vr×Cr^final)+(Vd×Cd^final))/(Vd×C0) • Where: • dCr/dt is the slope of the cumulative concentration in the receiver compartment versus time in μM s^−1. • Vr is the volume of the receiver compartment in cm^3. • Vd is the volume of the donor compartment in cm^3. • A is the area of the cell-free insert (1.13 cm^2 for 12-well Transwell). • Cr^final is the cumulative receiver concentration in μM at the end of the incubation period. • Cd^final is the concentration of the donor in μM at the end of the incubation period. • C0 is the initial concentration of the dosing solution in μM.
# (§3) Each determination was performed in duplicate.
# [6] = system: Caco-2 cell monolayers; assay: Caco-2 Transwell plate certification with control compounds; settings: Caco-2 plate certification, TW12, passage 63, age 22 days
# Protocol: as §1
# [7] = system: endothelial cells; settings: in vitro model, endothelial cells invading collagen gel and forming capillary-like tubes; cited from earlier work
# [8] = Permeability through cell-free (blank) microporous membrane filter, non-specific binding assessment; assay type: in vitro ADME; settings: not told, pH 7.4, cell-free filter; for Papp A→B at 120 min, 2 μM: xanthohumol gel formulation at 2 μM xanthohumol; for recovery at 120 min, 2 μM: xanthohumol gel formulation at 2 μM
# Protocol: The permeability of the xanthohumol gel through a cell-free (blank) microporous 0.4 micron membrane filter was studied in order to determine the non-specific binding and cell-free diffusion Papp of the xanthohumol gel formulation. The xanthohumol gel formulation was assayed at a 2 μM xanthohumol concentration in Hanks buffer (Hanks Balanced Salt Solution (HBSSg) containing 10 mM HEPES and 15 mM glucose) at a pH of 7.4 in duplicate. Donor samples were collected at 120 minutes. Receiver samples were collected at 60 and 120 minutes. The apparent permeability coefficient, Papp, and percent recovery were calculated as follows:
# as §2
# [9] = Permeability across Caco-2 cell monolayers; assay type: in vitro ADME; settings: human
# Protocol: as §2, §3
# [10] = system: inducible COX-2; settings: read-out: IC50, inhibition of cyclooxygenase; cited from earlier work
molecule,measurement,setting,value
COc1cc(O)c(CC=C(C)C)c2c1C(=O)CC(c1ccc(O)cc1)O2 (stereo not shown) [isoxanthohumol],Inhibition of cytochrome P450 enzyme,[1],strongly inhibit
same,Inhibition of cytochrome P450 enzyme,[2],strongly inhibit
same,Inhibition of cytochrome P450 enzyme,[3],strongly inhibit
CC(C)NCC(O)COc1cccc2ccccc12 (stereo not shown) [Propranolol],Papp,[4],20.6 ×10⁻⁶ cm/s
Lucifer Yellow [reference compound],"Lucifer yellow Papp, post-experiment integrity control",[5]; all monolayers after exposure to test article,< 8e-07 cm/s
same,Papp,[6],1.3e-07 cm/s
CC(C)=CCc1c(O)cc(O)c2c1O[C@H](c1ccc(O)cc1)CC2=O [8-prenylnaringenin],Inhibition of cytochrome P450 enzyme,[1],strongly inhibit
same,Inhibition of cytochrome P450 enzyme,[2],strongly inhibit
same,Inhibition of cytochrome P450 enzyme,[3],strongly inhibit
same,Effect on angiogenesis,[7],inhibits angiogenesis
"COc1cc(O)c(CC=C(C)C)c(O)c1C(=O)/C=C/c1ccc(O)cc1 [Xanthohumol, xanthohumol]","Papp A→B at 120 min, 2 μM","[8]; pH 7.4, Rep. 1",18.6 ×10⁻⁶ cm/s
same,"Papp A→B at 120 min, 2 μM","[8]; pH 7.4, Rep. 2",17.1 ×10⁻⁶ cm/s
same,"Papp A→B at 120 min, 2 μM","[8]; pH 7.4, average N = 2",17.9 ×10⁻⁶ cm/s
same,"recovery at 120 min, 2 μM",[8]; Rep. 1,95%
same,"recovery at 120 min, 2 μM",[8]; Rep. 2,99%
same,"recovery at 120 min, 2 μM",[8]; average N = 2,97%
same,"efflux ratio at 120 min, 2 μM","[9]; Caco-2, pH 7.4",2.1
same,"Papp A→B at 120 min, 2 μM","[9]; Caco-2, pH 7.4, Papp",0.84 ×10⁻⁶ cm/s
same,"Papp B→A at 120 min, 2 μM","[9]; Caco-2, pH 7.4, Papp",1.36 ×10⁻⁶ cm/s
same,Significant Efflux,[5]; Caco-2,No
same,IC50,[10],42 µM
same,Inhibition of cytochrome P450 enzyme,[1],strongly inhibit
same,Inhibition of cytochrome P450 enzyme,[2],strongly inhibit
same,Inhibition of cytochrome P450 enzyme,[3],strongly inhibit
C[C@H]1O[C@@H](O[C@H]2[C@@H](O)C[C@H](O[C@H]3[C@@H](O)C[C@H](O[C@H]4CC[C@@]5(C)[C@H](CC[C@@H]6[C@@H]5C[C@@H](O)[C@]5(C)[C@@H](C7=CC(=O)OC7)CC[C@]65O)C4)O[C@@H]3C)O[C@@H]2C)C[C@H](O)[C@@H]1O [Digoxin],efflux ratio,[4],16.6
